Among the data in ChEMBL document CHEMBL4411283, “The p53 stabilizing agent CP-31398 and multi-kinase inhibitors. Designing, synthesizing and screening of styrylquinazoline series” (Eur J Med Chem, 2019) are inhibition, IC50 and Ki values, retold here.

The target in test [1] is T1, Receptor tyrosine-protein kinase erbB-4 (Homo sapiens, UniProt Q15303). The test is described as follows: Inhibition of human wild type ERBB4 (L690 to K994 residues) expressed in bacterial expression system at 5 uM relative to control.
T1 sequence (Q15303 whole entry, the tested form may be a part): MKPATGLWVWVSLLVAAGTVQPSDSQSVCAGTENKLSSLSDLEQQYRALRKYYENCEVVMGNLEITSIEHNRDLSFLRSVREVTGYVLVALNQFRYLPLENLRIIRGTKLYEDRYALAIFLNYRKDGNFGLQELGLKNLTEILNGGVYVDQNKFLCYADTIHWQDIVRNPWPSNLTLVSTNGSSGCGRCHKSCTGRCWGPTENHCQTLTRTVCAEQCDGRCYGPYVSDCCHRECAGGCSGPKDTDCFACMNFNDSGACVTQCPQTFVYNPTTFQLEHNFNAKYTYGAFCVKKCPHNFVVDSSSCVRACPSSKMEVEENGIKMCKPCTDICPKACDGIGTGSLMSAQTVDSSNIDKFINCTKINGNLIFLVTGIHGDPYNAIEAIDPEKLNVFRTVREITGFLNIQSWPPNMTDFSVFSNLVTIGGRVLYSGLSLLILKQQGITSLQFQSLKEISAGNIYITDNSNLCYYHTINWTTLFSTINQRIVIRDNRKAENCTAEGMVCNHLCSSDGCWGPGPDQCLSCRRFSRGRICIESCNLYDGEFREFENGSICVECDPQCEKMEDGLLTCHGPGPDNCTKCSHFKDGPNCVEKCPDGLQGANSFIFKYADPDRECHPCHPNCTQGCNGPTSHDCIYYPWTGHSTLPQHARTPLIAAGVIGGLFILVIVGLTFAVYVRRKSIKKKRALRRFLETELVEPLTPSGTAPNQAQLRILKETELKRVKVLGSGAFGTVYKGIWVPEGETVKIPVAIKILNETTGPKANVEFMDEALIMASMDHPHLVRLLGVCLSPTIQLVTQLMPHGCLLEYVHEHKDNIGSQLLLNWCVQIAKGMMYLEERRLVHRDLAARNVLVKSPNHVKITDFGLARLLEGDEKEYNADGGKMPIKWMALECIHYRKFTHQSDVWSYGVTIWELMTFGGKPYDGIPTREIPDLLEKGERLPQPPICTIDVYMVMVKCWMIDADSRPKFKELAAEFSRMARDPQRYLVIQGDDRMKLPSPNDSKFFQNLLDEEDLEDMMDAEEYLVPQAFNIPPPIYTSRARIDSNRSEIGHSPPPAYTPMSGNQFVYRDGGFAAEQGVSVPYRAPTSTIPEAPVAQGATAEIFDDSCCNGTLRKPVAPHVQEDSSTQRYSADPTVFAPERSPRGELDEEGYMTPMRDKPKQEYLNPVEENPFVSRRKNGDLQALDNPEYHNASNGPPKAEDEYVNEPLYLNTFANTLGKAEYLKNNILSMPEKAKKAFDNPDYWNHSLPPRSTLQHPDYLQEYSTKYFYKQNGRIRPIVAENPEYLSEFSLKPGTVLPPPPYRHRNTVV
Test [2] relates to NHDF. Briefly: cells. The settings on record: Homo sapiens, 72 h.
Description: Antiproliferative activity against human NHDF cells after 72 hrs by CellTiter 96 aqueous one solution assay
Test [3] addresses T2, Tyrosine-protein kinase BTK (Homo sapiens, UniProt Q06187). The test is described as follows: Inhibition of BTK (unknown origin) preincubated for 10 mins followed by substrate addition and measured after 1 hr by ADP-Glo luminescence assay.
Test [4] concerns HCT-116. The test is described as follows: cells. As to conditions: Homo sapiens, HCT-116, 72 h.
Description: Antiproliferative activity against p53-/- human HCT116 cells after 72 hrs by CellTiter 96 aqueous one solution assay
Test [5] deals with MCF7. Briefly: cells. The settings on record: Homo sapiens, MCF7, 72 h.
Description: Antiproliferative activity against human MCF7 cells after 72 hrs by CellTiter 96 aqueous one solution assay
Test [6] addresses T3, Tyrosine-protein kinase Fyn (Homo sapiens, UniProt P06241). The test is described as follows: Inhibition of Fyn A (unknown origin) at 0.5 uM preincubated for 10 mins followed by substrate addition and measured after 1 hr by ADP-Glo luminescence assay relative to control.
Target sequence in this assay (P06241 2-537 limits assumed): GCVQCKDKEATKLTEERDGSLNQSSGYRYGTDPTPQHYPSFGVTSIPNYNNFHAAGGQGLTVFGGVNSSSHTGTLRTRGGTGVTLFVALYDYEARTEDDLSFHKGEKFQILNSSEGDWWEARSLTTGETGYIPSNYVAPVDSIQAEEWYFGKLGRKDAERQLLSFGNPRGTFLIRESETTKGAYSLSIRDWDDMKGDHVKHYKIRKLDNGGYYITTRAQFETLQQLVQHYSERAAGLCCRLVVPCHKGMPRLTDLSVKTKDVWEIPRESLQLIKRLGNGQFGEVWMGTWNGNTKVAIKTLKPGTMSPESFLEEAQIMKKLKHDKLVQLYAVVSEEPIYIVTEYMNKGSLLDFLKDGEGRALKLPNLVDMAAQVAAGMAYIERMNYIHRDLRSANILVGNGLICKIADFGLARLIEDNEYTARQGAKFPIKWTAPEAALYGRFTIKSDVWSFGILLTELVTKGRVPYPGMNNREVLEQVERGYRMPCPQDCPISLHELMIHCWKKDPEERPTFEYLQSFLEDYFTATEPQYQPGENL
The test system of test [7] is HCT-116. The test is described as follows: cells. As to conditions: Homo sapiens, HCT-116, 72 h. The source holds these as a separate data set.
Description: Antiproliferative activity against p53+/+ human HCT116 cells after 72 hrs by CellTiter 96 aqueous one solution assay
The target of test [8] is T3, Tyrosine-protein kinase Fyn. The test is described as follows: Inhibition of Fyn A (unknown origin) preincubated for 10 mins followed by substrate addition and measured after 1 hr by ADP-Glo luminescence assay.
Target sequence in this assay (P06241 whole entry): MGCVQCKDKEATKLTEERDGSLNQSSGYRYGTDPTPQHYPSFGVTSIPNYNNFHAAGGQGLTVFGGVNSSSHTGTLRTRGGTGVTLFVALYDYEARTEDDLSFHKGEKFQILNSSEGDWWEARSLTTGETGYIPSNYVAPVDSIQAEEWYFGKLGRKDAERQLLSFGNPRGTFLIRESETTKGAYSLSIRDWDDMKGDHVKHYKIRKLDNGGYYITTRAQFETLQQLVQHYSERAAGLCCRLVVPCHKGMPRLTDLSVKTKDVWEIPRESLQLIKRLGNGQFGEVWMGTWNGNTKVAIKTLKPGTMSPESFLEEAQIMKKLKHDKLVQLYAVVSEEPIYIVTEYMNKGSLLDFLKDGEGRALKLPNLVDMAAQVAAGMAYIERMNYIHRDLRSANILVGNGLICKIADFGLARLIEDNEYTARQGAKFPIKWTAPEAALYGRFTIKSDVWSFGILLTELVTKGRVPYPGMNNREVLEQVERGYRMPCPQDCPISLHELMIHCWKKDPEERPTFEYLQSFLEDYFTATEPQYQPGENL
For test [9], the system named is A549. Briefly: cells. The settings on record: Homo sapiens, A549, 72 h.
Description: Antiproliferative activity against human A549 cells after 72 hrs by CellTiter 96 aqueous one solution assay
In test [10] the target is T2, Tyrosine-protein kinase BTK. The test is described as follows: Inhibition of human BTK using KVEKIGEGTYGVVYK as substrate by [gamma-33P]-ATP assay.
In test [11] the target is T4, Tyrosine-protein kinase Lyn (Homo sapiens, UniProt P07948). Briefly: Inhibition of human LYN at 20 uM using poly[Glu:Tyr] (4:1) as substrate by [gamma-33P]-ATP assay relative to control.
In test [12] the target is T3, Tyrosine-protein kinase Fyn. Briefly: Inhibition of human FYN at 20 uM using poly[Glu:Tyr] (4:1) as substrate by [gamma-33P]-ATP assay relative to control.
Target sequence in this assay (P06241 2-537 limits assumed): as the sequence (P06241 2-537 limits assumed) above
Test [13] concerns the target Calcium/calmodulin-dependent protein kinase type 1G (Homo sapiens, UniProt Q96NX5). The test is described as follows: Inhibition of human CAMK1G using KKALRRQETVDAL as substrate by [gamma-33P]-ATP assay.
Test [14] has as its target Tyrosine-protein kinase ABL1 (Homo sapiens) (UniProt P00519). Briefly: Inhibition of human ABL1 at 20 uM using EAIYAAPFAKKK as substrate by [gamma-33P]-ATP assay relative to control.
The target in test [15] is T1, Receptor tyrosine-protein kinase erbB-4. The test is described as follows: Inhibition of human ERBB4 using poly[Glu:Tyr] (4:1) as substrate by [gamma-33P]-ATP assay.
The target of test [16] is T4, Tyrosine-protein kinase Lyn. The test is described as follows: Inhibition of human LYN-B using poly[Glu:Tyr] (4:1) as substrate by [gamma-33P]-ATP assay.
For test [17], the target named is Tyrosine-protein kinase Lck (Homo sapiens) (UniProt P06239). Briefly: Inhibition of human LCK at 20 uM using poly[Glu:Tyr] (4:1) as substrate by [gamma-33P]-ATP assay relative to control.
For test [18], the target named is Tyrosine-protein kinase CSK (Homo sapiens, UniProt P41240). Briefly: Inhibition of human CSK using poly[Glu:Tyr] (4:1) as substrate by [gamma-33P]-ATP assay.
Chain of Tyrosine-protein kinase CSK (P41240 whole entry): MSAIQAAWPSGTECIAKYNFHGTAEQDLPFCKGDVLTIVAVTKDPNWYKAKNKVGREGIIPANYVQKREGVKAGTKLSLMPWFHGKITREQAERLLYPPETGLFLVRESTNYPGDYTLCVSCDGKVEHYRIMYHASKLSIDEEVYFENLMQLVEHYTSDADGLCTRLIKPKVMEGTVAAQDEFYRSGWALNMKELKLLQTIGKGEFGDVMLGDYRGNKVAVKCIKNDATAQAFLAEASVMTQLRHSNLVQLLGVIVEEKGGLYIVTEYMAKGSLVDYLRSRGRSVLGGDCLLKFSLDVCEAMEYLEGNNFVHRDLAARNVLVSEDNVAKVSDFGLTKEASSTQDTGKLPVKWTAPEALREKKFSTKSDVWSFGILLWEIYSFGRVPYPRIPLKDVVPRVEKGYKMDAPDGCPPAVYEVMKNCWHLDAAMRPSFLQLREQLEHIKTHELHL
For test [19], the target named is Nociceptin receptor (Homo sapiens, UniProt P41146). Briefly: Displacement of [3H]-nociceptin from human nociceptin receptor expressed in cell membranes after 60 mins by liquid scintillation counting analysis.
Chain of Nociceptin receptor (P41146 whole entry): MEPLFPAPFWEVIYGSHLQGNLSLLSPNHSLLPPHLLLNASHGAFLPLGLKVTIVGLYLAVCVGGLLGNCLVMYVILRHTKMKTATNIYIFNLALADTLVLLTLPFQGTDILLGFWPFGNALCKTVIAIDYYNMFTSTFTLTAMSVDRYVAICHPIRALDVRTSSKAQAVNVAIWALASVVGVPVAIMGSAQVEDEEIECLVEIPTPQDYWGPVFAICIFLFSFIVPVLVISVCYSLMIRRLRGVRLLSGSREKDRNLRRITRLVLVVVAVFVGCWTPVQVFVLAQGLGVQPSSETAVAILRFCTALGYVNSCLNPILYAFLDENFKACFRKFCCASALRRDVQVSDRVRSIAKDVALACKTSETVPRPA
Test [20] has as its target Tyrosine-protein kinase ABL1 (Homo sapiens) (UniProt P00519). As to conditions: at 0.5 µM.
Description: Inhibition of ABL1 (unknown origin) at 0.5 uM preincubated for 10 mins followed by substrate addition and measured after 1 hr by ADP-Glo luminescence assay relative to control

T2 sequence (Q06187 whole entry): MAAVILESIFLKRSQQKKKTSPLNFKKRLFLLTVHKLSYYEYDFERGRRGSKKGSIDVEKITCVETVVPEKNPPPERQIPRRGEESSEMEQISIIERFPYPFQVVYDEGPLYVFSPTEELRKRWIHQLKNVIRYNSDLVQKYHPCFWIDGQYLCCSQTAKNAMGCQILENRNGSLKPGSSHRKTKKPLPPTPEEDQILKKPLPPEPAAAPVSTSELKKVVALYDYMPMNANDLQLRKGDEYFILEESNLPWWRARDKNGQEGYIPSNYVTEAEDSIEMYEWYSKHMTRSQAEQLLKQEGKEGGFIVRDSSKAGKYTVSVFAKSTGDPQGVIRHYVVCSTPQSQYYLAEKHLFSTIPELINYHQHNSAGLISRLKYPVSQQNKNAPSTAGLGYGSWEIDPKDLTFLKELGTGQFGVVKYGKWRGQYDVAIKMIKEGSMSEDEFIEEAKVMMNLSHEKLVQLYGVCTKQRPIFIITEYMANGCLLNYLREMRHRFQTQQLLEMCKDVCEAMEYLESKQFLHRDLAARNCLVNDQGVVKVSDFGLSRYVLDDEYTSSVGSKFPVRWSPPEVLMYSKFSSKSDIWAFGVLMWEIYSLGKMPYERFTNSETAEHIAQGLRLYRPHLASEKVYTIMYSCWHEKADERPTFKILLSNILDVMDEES
Chain of Tyrosine-protein kinase ABL1 (Homo sapiens) (P00519 whole entry): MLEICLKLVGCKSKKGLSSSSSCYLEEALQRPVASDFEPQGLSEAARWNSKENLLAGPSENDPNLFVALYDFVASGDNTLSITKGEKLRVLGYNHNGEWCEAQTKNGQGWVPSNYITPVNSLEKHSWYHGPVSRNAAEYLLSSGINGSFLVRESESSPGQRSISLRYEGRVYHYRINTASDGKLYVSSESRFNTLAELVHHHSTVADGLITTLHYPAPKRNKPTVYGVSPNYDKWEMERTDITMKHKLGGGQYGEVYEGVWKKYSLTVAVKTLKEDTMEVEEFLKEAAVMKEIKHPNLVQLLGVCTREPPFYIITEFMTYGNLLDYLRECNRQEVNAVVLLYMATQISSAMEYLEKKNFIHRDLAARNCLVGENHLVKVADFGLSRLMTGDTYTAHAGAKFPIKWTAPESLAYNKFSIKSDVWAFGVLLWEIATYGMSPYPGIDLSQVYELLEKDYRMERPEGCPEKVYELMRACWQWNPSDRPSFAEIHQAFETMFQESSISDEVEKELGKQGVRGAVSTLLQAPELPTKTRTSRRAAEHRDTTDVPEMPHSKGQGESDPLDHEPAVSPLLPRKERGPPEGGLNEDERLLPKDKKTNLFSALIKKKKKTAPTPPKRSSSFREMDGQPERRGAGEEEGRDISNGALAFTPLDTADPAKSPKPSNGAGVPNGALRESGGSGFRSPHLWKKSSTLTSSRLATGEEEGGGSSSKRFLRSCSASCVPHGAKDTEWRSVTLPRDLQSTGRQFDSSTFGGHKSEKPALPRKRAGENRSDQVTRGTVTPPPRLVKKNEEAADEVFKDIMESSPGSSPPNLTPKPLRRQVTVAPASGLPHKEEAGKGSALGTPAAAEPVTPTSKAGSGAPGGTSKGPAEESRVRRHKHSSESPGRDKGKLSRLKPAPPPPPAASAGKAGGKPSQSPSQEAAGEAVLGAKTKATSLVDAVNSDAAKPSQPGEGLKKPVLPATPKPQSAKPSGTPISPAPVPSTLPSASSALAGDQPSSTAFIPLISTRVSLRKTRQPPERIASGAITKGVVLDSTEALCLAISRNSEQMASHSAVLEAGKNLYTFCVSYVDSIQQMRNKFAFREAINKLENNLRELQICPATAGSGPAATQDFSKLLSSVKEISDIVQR

In [1], `CCN(CC)CCCNc1nc(/C=C/c2ccc(OC)cc2)nc2ccc(Br)cc12` returned an inhibition of 0%.

In the case of `COc1ccccc1/C=C/c1nc(Nc2ccc3c(c2)OCO3)c2ccccc2n1`, the IC50 in test [2] was found to be 7.72 µM; in test [3], 0.237 µM; in test [4], 13.7 µM; in test [5], 4.86 µM; in test [7] it was 15.9 µM; in [8] it was 0.191 µM. In test [9], this compound came in with an IC50 of 9.88 µM. Besides, the inhibition in [6] came out at 90%.

Regarding `O=[N+]([O-])c1cccc(/C=C/c2nc(Nc3cccc(O)c3)c3ccccc3n2)c1`, the IC50 is 11.2 µM in test [2]; 0.88 µM in test [3]; 10.8 µM in test [4]; 10.1 µM in test [5]; 10.9 µM in [7]; 15.4 µM in test [9]. Moreover, the inhibition in [6] came out at 0%.

With `CCN(CC)CCCC(C)Nc1nc(/C=C/c2cc(OC)c(OC)cc2Cl)nc2cc(Cl)ccc12` (stereo not drawn), the half-maximal inhibitory concentration (IC50) in [10] is 5.15 µM; in test [13], 4.81 µM; in test [15], 7.74 µM; in test [16] it was more than 100 µM; in [18], 6.85 µM. Further, the inhibition in test [11] came out at 50%; in [12], 70%; in test [14] it was 0%; in [17], 80%.

For `Cc1ccc2nc(/C=C/c3ccccn3)nc(N[C@H]3CC[C@@H](N)C[C@H]3C)c2c1`, in test [19], the Ki stood at 0.002 µM.

Consider `COc1ccc(Cl)c(Nc2ncnc3cc(OCC4CCN(C)CC4)c(OC)cc23)c1` [AZM-475271], for which the 50% inhibitory concentration (IC50) in test [2], in [4], in [5], in test [7] and in [9] was more than 25 µM each time. The inhibition was 76% in test [6] and 8% in [20].
